Blank lines part the entries; values can stand above or below the molecule they belong to.
What was measured:
CB1/CB2 receptors = assay: Tight/irreversible binding: reduction of [3H]CP-55,940 Bmax after ligand pretreatment; settings: receptors preincubated with ligand at 10-fold its Ki; saturation binding with [3H]CP-55,940; FIG. 8C
Protocol: Some disclosed compounds were tested for CB1 and CB2 receptor binding affinity (Tables 1, 2 and 3). As used herein “binding affinity” is represented by the Ki value. The Ki value is the affinity constant and describes the affinity of the compound for the receptor. The lower the Ki value, the higher the affinity of the compound for the receptor. A detailed description of the methods used to test “binding affinity” of compounds is given in Makriyannis, et al., US 2007, 0135388 and in Papahatjis, et al. J. Med. Chem. (2007) 4048, the content of each of which is hereby incorporated by reference. Functional characterization of some of the disclosed compounds was performed by using the cyclic adenosine monophosphate (cAMP) assay. The functional potency of the compound is represented by the EC50 value. The lower the EC50 value, the higher the functional potency. A detailed description of the cyclic adenosine monophosphate (cAMP) assay is given in Nikas et al. J. Med. Chem. (2010) 6996. The ability of some of the ligands to bind to the CB1/CB2 receptors with a tight/irreversible binding mode was determined by measuring reductions in the binding for the radioligand [3H]CP-55,940 when the receptor preparation was pretreated with the tight/irreversible ligand, and comparing it to the untreated sample as disclosed in Ogava et al. J. Med. Chem. (2015) 58, 3104. Reductions in the specific binding (Bmax) of [^3H]CP-55,940 after ligand pretreatment indicate ability of the ligand to tight/irreversibly bind to the receptor. As detailed in Ogava et al. J Med. Chem. (2015) 58, 3104, the experiment was conducted by pretreating the sample with a concentration equal to 10-fold the compound's Ki value for the receptor in question and subsequently measuring the decrease of Bmax obtained from a saturation curve using [3H]CP-55,940.

[1] = Fluorescence properties (excitation/emission maxima); format: physicochemical

Structure (SMILES): CCCCCCC(C)(C)c1cc(OC(=O)C(C)(C)CCCNC(=O)c2cc3cc4c5c(c3oc2=O)CCCN5CCC4)c2c(c1)OC(C)(C)C1CCC(=O)C[C@@H]21 (stereo in doubt) [Compound 9.11, (6aS,10aR)-6,6-Dimethyl-3-(2-methyloctan-2-yl)-9-oxo-6a,7,8,9,10,10a-hexahydro-6H-benzo[c]chromen-1-yl 2,2-dimethyl-5-(11-oxo-2,3,6,7-tetrahydro-1H, 5H, 11H-pyrano[2,3-f]pyrido[3,2,1-ij]quinoline-10-carboxamido)pentanoate]
melting point: 130 to 131 °C

Structure (SMILES): CCCCCCC(C)(C)c1cc(OC(=O)C(C)(C)CCCCNC(=O)c2cc3cc4c5c(c3oc2=O)CCCN5CCC4)c2c(c1)OC(C)(C)C1CCC(=O)C[C@@H]21 (stereo in doubt) [Compound 9.12, (6aS,10aR)-6,6-Dimethyl-3-(2-methyloctan-2-yl)-9-oxo-6a,7,8,9,10,10a-hexahydro-6H-benzo[c]chromen-1-yl 2,2-dimethyl-6-(11-oxo-2,3,6,7-tetrahydro-1H, 5H, 11H-pyrano[2,3-f]pyrido[3,2,1-ij]quinoline-10-carboxamido)hexanoate]
melting point: 133 to 134 °C

Structure (SMILES): CC(C)(CCCCCCCl)c1cc(O)c2c(c1)OC(C)(C)[C@@H]1CC[C@@H](Cn3cc(COC(=O)CCCC[C@@H]4SC[C@@H]5NC(=O)N[C@@H]54)nn3)C[C@@H]21 [Compound 3.1, (1-{[(6aR,9R,10aR)-3-(8-Chloro-2-methyloctan-2-yl)-1-hydroxy-6,6-dimethyl-6a,7,8,9,10,10a-hexahydro-6H-benzo [c]chromen-9-yl]methyl}-1H-1,2,3-triazol-4-yl)methyl 5-[(3aS,4S,6aR)-2-oxohexahydro-1H-thieno[3,4-d]imidazol-4-yl]pentanoate]
tight/irreversible binding mode (CB1/CB2 receptors): tight/irreversible

Structure (SMILES): CC(C)(CCCCCCCl)c1cc(O)c2c(c1)OC(C)(C)[C@@H]1CC[C@@H](Cn3cc(COC(=O)CCCCCNC(=O)CCCC[C@@H]4SC[C@@H]5NC(=O)N[C@@H]54)nn3)C[C@@H]21 [Compound 3.2, (1-{[(6aR,9R,10aR)-3-(8-Chloro-2-methyloctan-2-yl)-1-hydroxy-6,6-dimethyl-6a,7,8,9,10,10a-hexahydro-6H-benzo [c]chromen-9-yl]methyl}-1H-1,2,3-triazol-4-yl)methyl 6-{5-[(3aS,4S,6aR)-2-oxohexahydro-1H-thieno[3,4-d]imidazol-4-yl]pentanamido}hexanoate]
tight/irreversible binding mode (CB1/CB2 receptors): tight/irreversible

Structure (SMILES): CN(C)S(=O)(=O)c1ccc(NCc2cn(C[C@@H]3CC[C@@H]4[C@@H](C3)c3c(O)cc(C(C)(C)CCCCCCCl)cc3OC4(C)C)nn2)c2nonc12 [Compound 3.3, 7-(((1-(((6aR,9R,10aR)-3-(8-Chloro-2-methyloctan-2-yl)-1-hydroxy-6,6-dimethyl-6a,7,8,9,10,10a-hexahydro-6H-benzo [c]chromen-9-yl)methyl)-1H-1,2,3-triazol-4-yl)methyl)amino)-N,N-dimethylbenzo[c][1,2,5]oxadiazole-4-sulfonamide]
Em λmax ([1]; Acetonitrile): 583
Ex λmax ([1]; Acetonitrile): 416
Em λmax ([1]; Ethanol): 581
Ex λmax ([1]; Ethanol): 415

Structure (SMILES): CC(C)(CCCCCCCl)c1cc(O)c2c(c1)OC(C)(C)[C@@H]1CC[C@@H](Cn3cc(COCCCCNC(=O)c4cc5cc6c7c(c5oc4=O)CCCN7CCC6)nn3)C[C@@H]21 [Compound 3.4, N-{4-[(1-{[(6aR,9R,10aR)-3-(8-Chloro-2-methyloctan-2-yl)-1-hydroxy-6,6-dimethyl-6a,7,8,9,10,10a-hexahydro-6H-benzo[c]chromen-9-yl]methyl}-1H-1,2,3-triazol-4-yl)methoxy]butyl}-11-oxo-2,3,6,7-tetrahydro-1H, 5H, 11H-pyrano[2,3-f]pyrido[3,2,1-ij]quinoline-10-carboxamide]
Em λmax ([1]; Acetonitrile): 488
Ex λmax ([1]; Acetonitrile): 437
Em λmax ([1]; Ethanol): 477
Ex λmax ([1]; Ethanol): 436

Structure (SMILES): CC(C)(CCCCCCCl)c1cc(O)c2c(c1)OC(C)(C)[C@@H]1CC[C@@H](Cn3cc(CNC(=O)c4cc5cc6c7c(c5oc4=O)CCCN7CCC6)nn3)C[C@@H]21 [Compound 3.13]
Em λmax ([1]; Acetonitrile): 488
Ex λmax ([1]; Acetonitrile): 435
Em λmax ([1]; Ethanol): 478
Ex λmax ([1]; Ethanol): 436

Structure (SMILES): CC(C)(CCCCCCCl)c1cc(O)c2c(c1)OC(C)(C)[C@@H]1CC[C@@H](COC(=O)CCCC[C@@H]3SC[C@@H]4NC(=O)N[C@@H]43)C[C@@H]21 [Compound 4.2, [(6aR,9R,10aR)-3-(8-Chloro-2-methyloctan-2-yl)-1-hydroxy-6,6-dimethyl-6a,7,8,9,10,10a-hexahydro-6H-benzo[c]chromen-9-yl]methyl 5-[(3a,4S,6aR)-2-oxohexahydro-1H-thieno[3,4-d]imidazol-4-yl]pentanoate]
tight/irreversible binding mode (CB1/CB2 receptors): tight/irreversible

Structure (SMILES): CC(C)(CCCCCCCl)c1cc(O)c2c(c1)OC(C)(C)[C@@H]1CC[C@@H](COC(=O)CCCCCNC(=O)CCCC[C@@H]3SC[C@@H]4NC(=O)N[C@@H]43)C[C@@H]21 [Compound 4.4, [(6aR,9R,10aR)-3-(8-Chloro-2-methyloctan-2-yl)-1-hydroxy-6,6-dimethyl-6a,7,8,9,10,10a-hexahydro-6H-benzo[c]chromen-9-yl]methyl 6-{5-[(3aS,4S,6aR)-2-oxohexahydro-1H-thieno[3,4-d]imidazol-4-yl]pentanamido}hexanoate]
tight/irreversible binding mode (CB1/CB2 receptors): tight/irreversible

Structure (SMILES): CC(C)(CCCCCCO[N+](=O)[O-])c1cc(O)c2c(c1)OC(C)(C)[C@@H]1CC[C@@H](COC(=O)CCCC[C@@H]3SC[C@@H]4NC(=O)N[C@@H]43)C[C@@H]21 [Compound 4.7, {(6aR,9R,10aR)-1-Hydroxy-6,6-dimethyl-3-[2-methyl-8-(nitrooxy)octan-2-yl]-6a,7,8,9,10,10a-hexahydro-6H-benzo[c]chromen-9-yl}methyl 5-[(3aS,4S,6aR)-2-oxohexahydro-1H-thieno[3,4-d]imidazol-4-yl]pentanoate]
tight/irreversible binding mode (CB1/CB2 receptors): tight/irreversible

melting point: 132 to 133 °C
Structure (SMILES): CCCCCCC(C)(C)c1cc(OC(=O)c2cc3cc4c5c(c3oc2=O)CCCN5CCC4)c2c(c1)OC(C)(C)[C@@H]1CCC(=O)C[C@@H]21 [Compound 7.1, (6aR,10aR)-6,6-Dimethyl-3-(2-methyloctan-2-yl)-9-oxo-6a,7,8,9,10,10a-hexahydro-6H-benzo[c]chromen-1-yl 11-oxo-2,3,6,7-tetrahydro-1H, 5H, 11H-pyrano[2,3-f]pyrido[3,2,1-ij]quinoline-10-carboxylate]

melting point: 122 to 123 °C
Structure (SMILES): CCCCCCC(C)(C)c1cc(OC(=O)c2cc3ccc(OC)cc3oc2=O)c2c(c1)OC(C)(C)[C@@H]1CCC(=O)C[C@@H]21 [Compound 7.2, (6aR,10aR)-6,6-Dimethyl-3-(2-methyloctan-2-yl)-9-oxo-6a,7,8,9,10,10a-hexahydro-6H-benzo[c]chromen-1-yl 7-methoxy-2-oxo-2H-chromene-3-carboxylate]

melting point: 131 to 132 °C
Structure (SMILES): CCCCCCC(C)(C)c1cc(OC(=O)C(C)(C)CNC(=O)c2cc3cc4c5c(c3oc2=O)CCCN5CCC4)c2c(c1)OC(C)(C)[C@@H]1CCC(=O)C[C@@H]21 [Compound 9.9, (6aR,10aR)-6,6-Dimethyl-3-(2-methyloctan-2-yl)-9-oxo-6a,7,8,9,10,10a-hexahydro-6H-benzo[c]chromen-1-yl 2,2-dimethyl-3-(11-oxo-2,3,6,7-tetrahydro-1H, 5H, 11H-pyrano[2,3-f]pyrido[3,2,1-ij]quinoline-10-carboxamido)propanoate]

melting point: 132 to 133 °C
Structure (SMILES): CCCCCCC(C)(C)c1cc(OC(=O)C(C)(C)CCNC(=O)c2cc3cc4c5c(c3oc2=O)CCCN5CCC4)c2c(c1)OC(C)(C)[C@@H]1CCC(=O)C[C@@H]21 [Compound 9.10, (6aR,10aR)-6,6-Dimethyl-3-(2-methyloctan-2-yl)-9-oxo-6a,7,8,9,10,10a-hexahydro-6H-benzo[c]chromen-1-yl 2,2-dimethyl-4-(11-oxo-2,3,6,7-tetrahydro-1H, 5H, 11H-pyrano[2,3-f]pyrido[3,2,1-ij]quinoline-10-carboxamido)butanoate]
